“Also recorded” adds a separate entry of the source.
Assays:
[1] = Body weight in ST-02-0004 xenograft studies; details: in vivo, po, 25 mg/kg
Procedure: The in vivo activities of Compounds (1) and (2) were compared in combination with focused beam IR in a primary gastric cancer subcutaneous xenograft model. In the ST 02 0004 model, focused IR was administered on three consecutive days alone and in combination with Compound (1) or Compound (2). […] For all experimental groups, treatment was generally well tolerated as evidenced by maximum body weight losses ranging from −8.06% to −10.0% 10 to 48 days after treatment initiation
The anti-tumor activity of Compound (2) in combination with focused-beam IR and the standard of care agents, paclitaxel and carboplatin, was also evaluated in the ST 02 0004 model. Treatment with paclitaxel, carboplatin, and IR was administered once per week for three weeks alone or in combination with Compound (2). […] Further, the 50 and 25 mg/kg Compound (2), paclitaxel/carboplatin, IR combination groups were statistically different (P<0.05) from the paclitaxel/carboplatin, paclitaxel/carboplatin/50 mg/kg Compound (2), and paclitaxel/carboplatin/IR groups. Compound (2) blood exposures were 9.3 and 27 μg*h/mL for the 25 and 50 mg/kg Compound (2) bid groups, respectively.

[2] = system: OE-19 GEJ cell line xenograft; test: OE-19 GEJ cell line xenograft efficacy with whole body IR; assay type: in vivo
Procedure: The in vivo efficacies of Compounds (1) and (2) in combination with whole body IR were examined in the OD26749 primary NSCLC (non-small cell lung cancer) and the OE-19 GEJ cell line xenograft models. In these studies, Compounds (1) and (2) were formulated with 16% captisol/1% PVP/1% HPMC E5 pH2.
The OE-19 cell line xenograft model was used to evaluate the efficacy of Compounds (1) and (2) alone and in combination with IR. Two cycles of treatment were administered (Day 0 and Day 7) as performed in the OD26749 model above.
In Tables 14 and 15, for example, PO bid (0, 4 h) indicates Compound (2) is administered twice (bid) at time point 0 and then 4 hours after; IR (0.25 h) qdx3 indicates radiation is administered 15 minutes (0.25 h) after the administration of Compound (2) (0 h), and once a day for 3 days (qdx3); q7dx2 indicates once a week for two weeks; qod indicates every other day twice (e.g., Day 1 and Day 3); and paclitaxel q7dx3 (−0.25 h), carboplatin q7dx3 (−0.25 h) indicates administration of paclitaxel and carboplatin 15 minutes prior to the administration of Compound (2), followed by additional administration of Compound (2) after 4 hours after the first administration of Compound (2).

A549 = test: Combination with genotoxic agents, cell viability (Mixtures Blend); assay type: cell-based; set-up: key to Synergy or Antagonism, Plus Radiation (2 Gy): Plus = enhanced effect of radiation; *: Viability reduction driven predominantly by Compound (1) plus radiation
Procedure: (§1) The cell-based experiments and assays were performed with either molecule but not always with both. Compounds (1) and (2) were generally very similar in those assays and experiments. Analysis of the combination experiments was performed using two methods: the Bliss Additivity model and the Mixtures Blend method to determine the degree of synergy, additivity, or antagonism. In the Bliss method, a matrix of Bliss scores was generated for each cell line and treatment, and a sum of the Bliss values over the range of combination concentrations tested was calculated. […] Larger average Bliss values indicate greater confidence in reporting synergy, and smaller scores indicate greater confidence in reporting antagonism. In the Mixtures Blend method combinants were added in a range of optimal ratios using design of experiment (DOE) software (DX-8 from STAT-EASE); the cells were irradiated with 2 Gy as required. Synergy was determined using statistical analysis of the data (ANOVA) to indicate linear (additivity) or statistically significant (p<0.1) non-linear (antagonism or synergy) mixes of the combinants. The following SOC agents were tested in double combinations with Compound (1): etoposide (a topoisomerase inhibitor that induces DSBs), cisplatin (DNA cross-linker), carboplatin (DNA cross-linker), fluorouracil (5-FU, antimetabolite that inhibits thymidylate synthase), paclitaxel (mitotic inhibitor that binds to tubulin), cetuximab (EGFR monoclonal antibody), and radiation. […] These findings were confirmed using the Bliss Additivity model (Table 21). […] While there is not total agreement in the various lines tested, (as detailed in the other sections) the majority agree and the conclusions arrived at are common to each. […] The cancer cell lines in Table 19 indicate: ESO26-gastroesophageal junction cancer, OE19-gastroesophageal junction cancer, […]549-lung cancer, colo205-colon cancer, H460-lung cancer, H2009-lung cancer, FaDu-pharynx cancer, Miapaca2-pancreatic cancer, HFL1-human fetal lung fibroblast.

FaDu = test: as above; assay type: cell-based; set-up: key to Synergy or Antagonism, Plus Radiation (2 Gy): Plus = enhanced effect of radiation; *: Viability reduction driven predominantly by Compound (1) plus radiation
Procedure: as §1

H2009 = test: as above; assay type: cell-based; set-up: key to Synergy or Antagonism, Plus Radiation (2 Gy): Plus = enhanced effect of radiation; *: Viability reduction driven predominantly by Compound (1) plus radiation; details: no agent ticked
Procedure: as §1

H460 = test: as above; assay type: cell-based; set-up: key to Synergy or Antagonism, Plus Radiation (2 Gy): Plus = enhanced effect of radiation; *: Viability reduction driven predominantly by Compound (1) plus radiation; details: no agent ticked
Procedure: as §1

HFL1 = test: as above; assay type: cell-based, human
Procedure: as §1

FaDu cells = test: Clonogenic survival of irradiated cancer cell lines; assay type: cell-based
Source text: (§2) The clonogenic cell survival assay measures the ability of a cell to proliferate indefinitely, thereby retaining its self-renewing ability to form a colony (i.e., clone). This assay has been a mainstay in radiation oncology for decades and was used to determine the effect of Compound (1) on the clonogenicity of a panel of cell lines across multiple tumor types following radiation. […] A DEF greater than 1.5 is generally considered to be clinically meaningful; therefore, by these standards, Compound (1) would be characterized as a strong radio-enhancing agent.

Miapaca2 cells = test: as above; assay type: cell-based; details: with radiation; surviving fraction 0.1
Source text: as §2

[2H]c1nc(C)nc([2H])c1-c1cc(NC[C@@H](C)c2cccc3c(C(=O)NC)ccnc23)ncn1 [Compound (2), (S)-N-methyl-8-(1-((2′-methyl-4′,6′-dideutero-[4,5′-bipyrimidin]-6-yl)amino)propan-2-yl)quinoline-4-carboxamide]
Max. body wt loss (%) [1]: −6.73%

CNC(=O)c1ccnc2c([C@H](C)CNc3cc(-c4cnc(C)nc4)ncn3)cccc12 [Compound (1), (S)-N-methyl-8-(1-((2′-methyl-[4,5′-bipyrimidin]-6-yl)amino)propan-2-yl)quinoline-4-carboxamide]
tumor growth ([2]; Compound (1) in combination with 2 Gy whole body IR): significantly inhibited tumor growth
% T/C (Day 18) ([2]; PO 100 mg/kg bid (0, 4 h) qd7x2, 2 Gy IR qd7x2 ([…]) whole body): 24.0%
% T/C (Day 18) ([2]; PO 100 mg/kg bid (0, 4 h) qd7x 2, no IR): 79.0%
Synergy or Antagonism, No Radiation (A549; no agent ticked): Synergy
Synergy or Antagonism, Plus Radiation (2 Gy) (A549; no agent ticked): Plus
Synergy or Antagonism, No Radiation (A549; with Cetuximab): Additivity
Synergy or Antagonism, Plus Radiation (2 Gy) (A549; with Cetuximab): Additivity, Plus
Synergy or Antagonism, No Radiation (A549; with Cisplatin): Additivity
Synergy or Antagonism, No Radiation (A549; with Cisplatin and Etoposide): Strong Synergy
Synergy or Antagonism, Plus Radiation (2 Gy) (A549; with Cisplatin and Etoposide): Strong Synergy, Plus
Synergy or Antagonism, No Radiation (A549; with Cisplatin and Paclitaxel): additive; also recorded: Additivity
Synergy or Antagonism, Plus Radiation (2 Gy) (A549; with Cisplatin and Paclitaxel): Synergy, Plus
Synergy or Antagonism, No Radiation (A549; with Etoposide): Strong Synergy
Synergy or Antagonism, No Radiation (A549; with Paclitaxel): Antagonism
Synergy or Antagonism, No Radiation (FaDu; no agent ticked): Synergy
Synergy or Antagonism, Plus Radiation (2 Gy) (FaDu; no agent ticked): Plus
Synergy or Antagonism, No Radiation (FaDu; with Cetuximab): Additivity
Synergy or Antagonism, Plus Radiation (2 Gy) (FaDu; with Cetuximab): Additivity, Plus
Synergy or Antagonism, No Radiation (H2009): Additivity
Synergy or Antagonism, Plus Radiation (2 Gy) (H2009): Plus
Synergy or Antagonism, No Radiation (H460): Synergy
Synergy or Antagonism, Plus Radiation (2 Gy) (H460): Plus
Synergy or Antagonism, No Radiation (HFL1; no agent ticked): Additivity
Synergy or Antagonism, Plus Radiation (2 Gy) (HFL1; no agent ticked): No effect
Synergy or Antagonism, No Radiation (HFL1; with Cisplatin): Additive
Synergy or Antagonism, No Radiation (HFL1; with Cisplatin and 5-FU): Additivity
Synergy or Antagonism, Plus Radiation (2 Gy) (HFL1; with Cisplatin and 5-FU): Additivity, Plus
Synergy or Antagonism, No Radiation (HFL1; with Etoposide): Synergy
Synergy or Antagonism, No Radiation (HFL1; with Paclitaxel): Additivity
colony formation (FaDu cells; Compound (1) and radiation, as little as 0.5 Gy): completely eliminated colony formation
dose enhancement factor (DEF) (FaDu cells; with radiation, surviving fraction 0.1): > 8
dose enhancement factor (DEF) (Miapaca2 cells): 2.5

Reference: patent US10039761B2, “Co-crystals and pharmaceutical compositions comprising the same” (Vertex Pharmaceuticals Incorporated, priority 2013, dated 2018)
